Experimental data published in patent US6855511B2, “Fructosamine oxidase assay: methods and materials” (Protemix Corporation Limited, priority 1998, dated 2005).
Values belong to the molecule of their own block, whether it stands above or below them.

Tests used:
Format in all cases: biochemical
[1] = system: Human fructosamine oxidase; experiment: Interference of additives/anticoagulants in the fructosamine oxidase assay; conditions: additive in the reagent (Heparin 1000 U/L, EDTA 100 μM); control 100
Procedure: (§1) The reagent is 50 mM TES buffer pH 7.4 containing 10 μM cytochrome c (Sigma), and […] 50 μM fructosamine as glycated bovine serum albumin.
(§2) One unit of enzyme was defined as the amount which reduced 1 μmol/minute of cytochrome c in solution under the above assay conditions. The calculation factor is determined from the molar absorptivity for ferrocytochrome c (E550nm) according to the formula: U/L(μmol.min^−1.L^−1)=TV×10^3/ε550nm×SV where • TV=total reaction volume • SV=sample volume (iv) Materials
Cytochrome c is a non-specific reductant and other reducing substances in sera or anticoagulants added to the blood sample at specimen collection may interfere in the assay as shown in Table 4.

fructosamine oxidase [2] = experiment: Fructosamine oxidase inhibitor assay (ferricytochrome c reduction) in human blood plasma; parameters: velocity constant (K), fraction of the enzyme inhibited in a given period of time: dose or concentration left out as unconfirmed; conditions: human plasma sample; for IC50: read-out: IC50, concentration of inhibitor causing 50% inactivation of the enzyme
Procedure: as §1, §2
An important application of the current activity assay is as a means to identify potential fructosamine oxidase antagonists and inhibitors. Fructosamine oxidase inhibitors may be hydrazine compounds which bind and block the quinone co-factor, copper chelators which bind and block the copper co-factor, or substrate analogues which mimic the normal substrate of the enzyme. […]
The effectiveness of an enzyme inhibitor is usually expressed by a velocity constant (K) which determines the fraction of the enzyme inhibited in a given period of time by a certain concentration of inhibitor. The specificity of the inhibitor for the active center of the enzyme is indicated by the concentration of inhibitor causing 50% inactivation of the enzyme (IC50). […].

fructosamine oxidase [3] = experiment: Specificity of the fructosamine oxidase assay for reactive oxygen species, free radical scavengers added to the reagent; conditions: free radical scavenger added to the reagent (superoxide dismutase 20 kU/L, catalase 1000 kU/L, mannitol 50 mmol/L); control 15.34 ± 0.16
Procedure: as §1, §2
The specificity of the assay for reactive oxygen species was tested by measuring degree of inhibition of ferricytochrome c reduction after adding the following oxygen free radical scavengers to the reaction mixture: (a) Superoxide dismutase to selectively remove superoxide; (b) catalase to selectively remove hydrogen peroxide; & (iii) mannitol to scavenge hydroxyl radicals.

Activity compared with control [1]: 26.3%
Molecule: O=C(O)CN(CCN(CC(=O)O)CC(=O)O)CC(=O)O [EDTA, ethylenediamine tetraacetic acid]

Molecule: C[C@H](CS)C(=O)N1CCC[C@H]1C(=O)O [captopril]
velocity constant (K), fraction of the enzyme inhibited in a given period of time (fructosamine oxidase [2]): 2.6 % per minute
IC50 (fructosamine oxidase [2]): 830 nM

velocity constant (K), fraction of the enzyme inhibited in a given period of time (fructosamine oxidase [2]): 15 % per minute
IC50 (fructosamine oxidase [2]): 500 nM
Molecule: C[C@@](Cc1ccc(O)c(O)c1)(NN)C(=O)O [carbidopa]

Molecule: OC[C@@H](O)[C@@H](O)[C@H](O)[C@H](O)CO [mannitol]
Enzyme activity (fructosamine oxidase [3]): 14.96 ± 0.19 U/L

Activity compared with control [1]: 24.4%
Molecule: Heparin

Molecule: catalase
Enzyme activity (fructosamine oxidase [3]): 12.23 ± 0.03 U/L

Molecule: superoxide dismutase
Enzyme activity (fructosamine oxidase [3]): 9.99 ± 0.03 U/L
